Assay results: patent US20200239530A1, “COMPOUNDS AND METHODS OF MODULATING PROTEIN DEGRADATION” (Vividion Therapeutics, Inc., priority 2017, published 2020)
Like-named read-outs stand apart in the source and are kept apart here.

What was measured:
Test in all cases: Competitive cysteine profiling, probe competition (Table 2B)
Type in all cases: binding
Q9C0C7 = target: T1, Q9C0C7 (Homo sapiens, UniProt Q9C0C7)
T1 construct: Cells were resuspended in cold PBS on ice and sonicated with a probe sonicator to achieve lysis; endogenous in cells
T1 sequence (Q9C0C7 1-1298): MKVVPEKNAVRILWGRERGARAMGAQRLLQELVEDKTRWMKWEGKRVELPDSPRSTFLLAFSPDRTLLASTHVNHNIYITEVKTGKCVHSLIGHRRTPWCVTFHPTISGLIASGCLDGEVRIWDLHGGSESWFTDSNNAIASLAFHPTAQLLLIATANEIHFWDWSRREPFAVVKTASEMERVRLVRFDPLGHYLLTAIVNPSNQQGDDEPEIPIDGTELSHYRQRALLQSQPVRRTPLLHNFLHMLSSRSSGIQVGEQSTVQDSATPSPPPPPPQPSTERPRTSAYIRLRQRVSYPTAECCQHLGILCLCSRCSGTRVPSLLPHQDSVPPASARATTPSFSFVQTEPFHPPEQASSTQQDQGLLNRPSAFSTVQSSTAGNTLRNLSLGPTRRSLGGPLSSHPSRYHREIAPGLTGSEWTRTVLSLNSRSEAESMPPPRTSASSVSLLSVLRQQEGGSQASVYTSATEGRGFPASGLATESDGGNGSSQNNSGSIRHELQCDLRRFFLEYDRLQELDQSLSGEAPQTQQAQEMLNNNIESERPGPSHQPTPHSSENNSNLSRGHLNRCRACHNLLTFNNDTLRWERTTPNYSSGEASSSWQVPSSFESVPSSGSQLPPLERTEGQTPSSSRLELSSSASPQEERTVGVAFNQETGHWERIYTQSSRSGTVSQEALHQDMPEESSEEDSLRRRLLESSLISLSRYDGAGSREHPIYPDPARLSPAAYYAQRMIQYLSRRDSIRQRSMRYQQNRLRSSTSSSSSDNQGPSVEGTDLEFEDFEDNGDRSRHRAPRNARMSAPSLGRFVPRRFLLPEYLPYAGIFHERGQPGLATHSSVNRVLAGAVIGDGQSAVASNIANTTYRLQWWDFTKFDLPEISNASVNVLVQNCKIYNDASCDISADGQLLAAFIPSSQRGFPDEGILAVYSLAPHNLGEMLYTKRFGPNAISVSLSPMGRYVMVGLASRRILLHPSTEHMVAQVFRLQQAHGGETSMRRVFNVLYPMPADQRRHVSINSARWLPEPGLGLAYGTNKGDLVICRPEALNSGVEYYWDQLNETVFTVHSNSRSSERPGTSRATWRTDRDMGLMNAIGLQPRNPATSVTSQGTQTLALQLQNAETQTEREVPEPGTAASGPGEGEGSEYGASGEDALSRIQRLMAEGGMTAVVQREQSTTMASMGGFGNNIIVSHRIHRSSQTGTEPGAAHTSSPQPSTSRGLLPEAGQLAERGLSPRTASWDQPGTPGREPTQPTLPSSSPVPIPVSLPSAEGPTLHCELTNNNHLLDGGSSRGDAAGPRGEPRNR
Description: (§1) The following 96-well sample prep protocol was used for sample preparation.

Q9BX70 = target: T2, Q9BX70 (Homo sapiens, UniProt Q9BX70)
T2 construct: 200 μL of lysate containing 5 mg/ml proteome was treated with 2 μL of 100× compound stock; endogenous in cells
T2 sequence (Q9BX70 whole entry): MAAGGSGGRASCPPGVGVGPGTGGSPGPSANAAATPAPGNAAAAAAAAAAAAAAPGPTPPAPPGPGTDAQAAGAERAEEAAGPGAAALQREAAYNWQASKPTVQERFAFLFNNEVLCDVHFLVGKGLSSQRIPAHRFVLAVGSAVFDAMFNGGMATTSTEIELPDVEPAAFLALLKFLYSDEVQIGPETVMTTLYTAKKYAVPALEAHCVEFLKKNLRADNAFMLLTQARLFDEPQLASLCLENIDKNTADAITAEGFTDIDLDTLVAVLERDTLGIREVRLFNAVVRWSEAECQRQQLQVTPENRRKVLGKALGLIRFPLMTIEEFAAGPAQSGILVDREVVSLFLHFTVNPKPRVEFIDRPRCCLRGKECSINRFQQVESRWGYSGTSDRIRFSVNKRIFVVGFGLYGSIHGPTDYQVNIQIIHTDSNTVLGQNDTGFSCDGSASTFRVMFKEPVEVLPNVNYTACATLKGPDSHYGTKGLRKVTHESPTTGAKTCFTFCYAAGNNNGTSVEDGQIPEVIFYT
Description: as §1

Q9P203 = target: T3, Q9P203 (Homo sapiens, UniProt Q9P203)
T3 construct: 200 μL of lysate containing 5 mg/ml proteome was treated with 2 μL of 100× compound stock; endogenous in cells
T3 sequence (Q9P203 1-1132): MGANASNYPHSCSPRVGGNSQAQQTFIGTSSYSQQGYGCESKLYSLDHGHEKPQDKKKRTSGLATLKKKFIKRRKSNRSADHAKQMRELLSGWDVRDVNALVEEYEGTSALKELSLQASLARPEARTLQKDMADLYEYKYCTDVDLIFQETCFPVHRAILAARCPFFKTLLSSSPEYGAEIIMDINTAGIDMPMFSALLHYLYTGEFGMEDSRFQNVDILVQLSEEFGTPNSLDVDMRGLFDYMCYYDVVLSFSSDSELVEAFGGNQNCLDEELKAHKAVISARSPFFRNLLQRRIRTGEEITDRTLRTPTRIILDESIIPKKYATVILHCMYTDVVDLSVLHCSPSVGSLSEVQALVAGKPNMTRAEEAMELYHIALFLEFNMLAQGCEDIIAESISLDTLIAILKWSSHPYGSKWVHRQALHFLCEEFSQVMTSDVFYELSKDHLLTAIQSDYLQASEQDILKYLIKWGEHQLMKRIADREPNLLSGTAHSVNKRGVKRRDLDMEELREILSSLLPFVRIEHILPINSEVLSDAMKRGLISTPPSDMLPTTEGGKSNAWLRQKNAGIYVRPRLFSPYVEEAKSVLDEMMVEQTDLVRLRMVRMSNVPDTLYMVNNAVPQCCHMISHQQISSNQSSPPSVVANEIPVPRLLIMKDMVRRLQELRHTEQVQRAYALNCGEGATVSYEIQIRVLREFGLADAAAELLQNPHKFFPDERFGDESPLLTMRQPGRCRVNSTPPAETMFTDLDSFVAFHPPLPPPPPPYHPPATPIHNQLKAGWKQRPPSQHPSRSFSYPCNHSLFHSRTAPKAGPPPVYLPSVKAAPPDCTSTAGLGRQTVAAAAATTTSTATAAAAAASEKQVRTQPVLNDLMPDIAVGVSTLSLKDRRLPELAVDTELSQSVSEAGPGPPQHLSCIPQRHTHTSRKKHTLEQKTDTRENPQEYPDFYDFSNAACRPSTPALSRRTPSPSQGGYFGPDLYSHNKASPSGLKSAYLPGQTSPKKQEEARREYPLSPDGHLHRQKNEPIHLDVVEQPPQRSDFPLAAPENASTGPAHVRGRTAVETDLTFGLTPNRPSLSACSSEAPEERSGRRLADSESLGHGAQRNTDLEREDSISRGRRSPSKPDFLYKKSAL
Description: as §1

Q8WXK3 = target: T4, Q8WXK3 (Homo sapiens, UniProt Q8WXK3)
T4 construct: 200 μL of lysate containing 5 mg/ml proteome was treated with 2 μL of 100× compound stock; endogenous in cells
T4 sequence (Q8WXK3 whole entry): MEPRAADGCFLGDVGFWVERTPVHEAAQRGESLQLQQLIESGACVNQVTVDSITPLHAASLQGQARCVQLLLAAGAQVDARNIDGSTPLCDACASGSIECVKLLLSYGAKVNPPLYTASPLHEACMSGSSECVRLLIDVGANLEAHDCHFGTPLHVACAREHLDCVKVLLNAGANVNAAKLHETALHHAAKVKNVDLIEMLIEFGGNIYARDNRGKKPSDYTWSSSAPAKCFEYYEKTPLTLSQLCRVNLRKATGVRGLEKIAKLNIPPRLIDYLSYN
Description: as §1

**Q.** What does the source list for `C=CC(=O)N(c1ccccc1)c1ccc(Br)cc1` [KB05]?
**A.** KB05_100 uM_percent_inhibition (Q9C0C7; 100 uM): 25%; inhibition at 100 µM (Q9C0C7; read-out: KB05_100 uM_percent_inhibition): 23%

**Q.** For `O=C(CCl)Nc1cc(C(F)(F)F)cc(C(F)(F)F)c1` [KBO3], which “KB03_500 uM_percent_inhibition” value (Q9BX70; 500 uM) is on record?
**A.** 40%

**Q.** What about the “KB03_500 uM_percent_inhibition” value (Q9P203; 500 uM) of the same molecule?
**A.** 13%

**Q.** And the “KB03_100 uM_percent_inhibition” value (Q8WXK3; 100 uM)?
**A.** 7%

**Q.** Which inhibition at 100 µM (Q9BX70; 100 uM, read-out: KB02_100 uM_percent_inhibition) does the source give for `COc1ccc2c(c1)CCCN2C(=O)CCl` [KB02] here?
**A.** 4%

**Q.** And the “KB02_100 uM_percent_inhibition” value (Q9C0C7; 100 uM)?
**A.** 49%

**Q.** What about the inhibition at 100 µM (Q9C0C7; read-out: KB02_100 uM_percent_inhibition) of the same molecule?
**A.** 48%

**Q.** And the “KB02_500 uM_percent_inhibition” value (Q9P203; 500 uM)?
**A.** 17%

**Q.** What about the inhibition at 500 µM (Q9P203; read-out: KB02_500 uM_percent_inhibition) of the same molecule?
**A.** 12%

**Q.** And the inhibition at 500 µM (Q8WXK3; 500 uM, read-out: KB02_500 uM_percent_inhibition)?
**A.** 44%
